# Values quoted from earlier work as cited in patent publication US9393439B2, “Radiotherapy combined with hypoxic cell sensitizers” (IntraOp Medical Corporation, priority 2010, dated 2016).
# Conditions: patients, single dose administration; above this level the incidence of side effects increases
smiles,measurement,value
"O=C(Cn1ccnc1[N+](=O)[O-])NCCO [Etanidazole, etanidazole]",maximum tolerated dose (dose that may safely be given),12 gm/m^2
